According to patent US12550885B2, “Red blood cell storage solutions, solution additives, and methods for improving the storage of red blood cells” (University of Cincinnati, priority 2016, dated 2026):

Columns and labels:
human pRBCs [1] = assay: Microparticle formation in stored human pRBCs (Nanoparticle Tracking Analysis); assay type: cell-based; settings: human pRBCs stored at 4° C., increasing doses added prior to storage
Description: (§1) Human pRBCs were obtained from Hoxworth Blood Bank (Cincinnati, OH) and stored at 4° C. for 42 days according to standard blood banking practice. Murine pRBCs were obtained as previously described. Briefly, donor mice were anesthetized with intraperitoneal pentobarbital (0.1 mg/g body weight) and blood was collected via cardiac puncture into CP2D anticoagulant-coated syringes. CP2D was then added to the whole blood in a 1:7 ratio and gently mixed. Whole blood was centrifuged at 1,000 g for 10 minutes at 4° C. and platelet-rich plasma was discarded. Storage solution (AS-3) was added to erythrocytes in a 2:9 ratio using the original whole blood volume. Units were stored at 4° C. for 14 days.
(§2) Erythrocytes were pelleted from pRBC samples at 2,000 g for 10 minutes at 4° C. The supernatant from this spin was then centrifuged at 10,000 g for 10 minutes at 4° C. to pellet any remaining cells or platelets. The MP-rich supernatant from this second spin was used to characterize MP production and hemolysis. MPs were pelleted using a 20,000 g spin for 30 minutes at 4° C.

mouse pRBCs [2] = assay: Microparticle formation in stored mouse pRBCs (Nanoparticle Tracking Analysis); assay type: cell-based; settings: mouse pRBCs stored at 4° C. for 14 days, inhibitor added prior to storage
Description: as §1, §2

human pRBCs [3] = assay: Hemolysis (cell-free hemoglobin) in stored human pRBCs; assay type: cell-based; settings: human pRBCs stored at 4° C., increasing AT concentration
Description: as §1
as §2, with “MPs were pelleted using a 20,000 g spin for 30 minutes at 4° C.” left out
(§3) Hemoglobin in the MP-rich supernatant was quantified using a Coulter AcT diff Analyzer (Beckman Coulter Corp., Brea, CA). Cell size (forward scatter), complexity (side scatter), phosphatidylserine exposure (annexin V positivity), and band 3 protein integrity (eosin-5-maleimide^68) were analyzed using an Attune flow cytometer (Life Technologies, Carlsbad, CA). […]

mouse pRBCs [4] = assay: Hemolysis (cell-free hemoglobin) in stored mouse pRBCs; assay type: cell-based; settings: mouse pRBCs stored at 4° C. for 14 days, inhibitor added prior to storage
Description: as §1
as §2, with “MPs were pelleted using a 20,000 g spin for 30 minutes at 4° C.” left out
as §3

mouse erythrocytes = assay: Erythrocyte characterization by flow cytometry (size, complexity, phosphatidylserine exposure, band 3 integrity); assay type: cell-based
Description: as §1
Hemoglobin in the MP-rich supernatant was quantified using a Coulter AcT diff Analyzer (Beckman Coulter Corp., Brea, CA). Cell size (forward scatter), complexity (side scatter), phosphatidylserine exposure (annexin V positivity), and band 3 protein integrity (eosin-5-maleimide^68) were analyzed using an Attune flow cytometer (Life Technologies, Carlsbad, CA). Antibodies for ter119, CD235a, CD41, CD45, and Annexin V were acquired from BD Biosciences (San Diego, CA), and eosin-5-maleimide was obtained from Life Technologies (Carlsbad, CA).

C57BL/6 mice = assay: Lung inflammation after transfusion of aged pRBCs, histology (edema, Gr1 inflammatory cells, ZO1 tight junctions); assay type: in vivo, mouse; settings: 200 μl IV aged pRBCs treated with 125 μM AT, lungs taken 6 hours after transfusion
Description: Male C57BL/6 mice aged 8-10 weeks were purchased from Jackson Laboratories, fed standard laboratory diet and water ad libitum, and acclimated for 1 week in climate-controlled conditions with 12 hours light-dark cycles prior to use. Asm-deficient mice (Asm^−/−) on a C57BL/6 background were used and compared to syngenic C57Bl/6 wild type mice as controls. All experiments were approved by the Institutional Animal Care and Use Committee at the University of Cincinnati. To study the effect of AT treatment on lung inflammation following blood transfusion, mice received 200 μl IV injections of pRBCs or MPs. Lungs were taken 6 hours after transfusion for either histologic or Evans blue evaluation. Histologic lung sections were examined for evidence of lung edema with hematoxylin and inflammatory cells with anti-Gr1 antibodies (AbD Serotec, Raleigh, NC). Tight junction integrity was assessed by staining lung slides with Cy3-conjugated anti-ZO1 (Jackson ImmunoResearch, West Grove, PA). Endothelial cell permeability was assessed using the Evans blue method (source). In brief, mice were weighed and injected with 30 mg/kg Evans blue. After 10 minute of circulation time, mice were sacrificed and the pulmonary vasculature was flushed with 10 ml PBS. Lungs were dried at 55° C. for 24 hours and then incubated in 500 μl formamide for 48 hours at 55° C. Evans blue extraction calculated by measuring the optical density at 620 nm and comparing to a standard curve, and values were normalized to dry lung weight.

| Compound | MP formation (human pRBCs [1]) | MP formation (mouse pRBCs [2]) | hemolysis (cell-free hemoglobin) (human pRBCs [3]) | hemolysis (cell-free hemoglobin) (mouse pRBCs [4]) | age-related phosphatidylserine expression (annexin V positivity) (mouse erythrocytes; aged mouse erythrocytes) | age-related decrease in cell complexity (side scatter) (mouse erythrocytes; stored mouse erythrocytes) | reduction of band 3 degradation (eosin-5-maleimide) (mouse erythrocytes; stored mouse erythrocytes, 125 μM AT) [%] | age-related decrease in cell size (forward scatter) (mouse erythrocytes; stored mouse pRBCs) | disruption of tight junctions in the lung (ZO1) (C57BL/6 mice) | inflammatory cell recruitment to the lungs (C57BL/6 mice) | lung edema (C57BL/6 mice) |
| --- | --- | --- | --- | --- | --- | --- | --- | --- | --- | --- | --- |
| CN(C)CCC=C1c2ccccc2CCc2ccccc21 [AT, Amitriptyline] | dose-dependent reduction of MP formation | dose-dependent reduction of MP formation | dose-dependent reduction in hemolysis | dose-dependent reduction in hemolysis | reduced this age-related phosphatidylserine expression in a dose dependent manner | mitigated | ~50 | mitigated | mitigated | greatly reduced | greatly reduced |
| CNCCC(Oc1ccc(C(F)(F)F)cc1)c1ccccc1 (stereo not drawn) [Fluoxetine] |  |  |  | reduced hemolysis |  |  |  |  |  |  |  |
